# Like-named read-outs stand apart in the source and are kept apart here. d = 2'-deoxy (DNA); r = 2'-OH (RNA)
# Legend:
# Type in all cases: cell-based
# SARS-CoV-2 N-protein [1] = conditions: HSAEC, qRT-PCR
# SARS-CoV-2 N-protein [2] = conditions: HBTEC, qRT-PCR
# SARS-CoV-2 N-protein [3] = conditions: HNEpC, qRT-PCR
# [4] = oligos 24-48 hours, with lipofectamine
# [5] = oligos 24-48 hours, lipofectamine or Arginine not stated at the result
Substance,down-regulation of SARS-CoV-2 N-protein expression (SARS-CoV-2 N-protein [1]; [4]),down-regulation of SARS-CoV-2 N-protein expression (SARS-CoV-2 N-protein [2]; [4]),down-regulation of SARS-CoV-2 N-protein expression (SARS-CoV-2 N-protein [3]; [5]),"down-regulation of SARS-CoV-2 N-protein expression (SARS-CoV-2 N-protein [1]; oligo 24-48 hours, without any reagents)",down-regulation of SARS-CoV-2 N-protein expression (SARS-CoV-2 N-protein [2]; without any reagents),down-regulation of SARS-CoV-2 N-protein expression (SARS-CoV-2 N-protein [3]; without any reagents)
"TGTTAATTGGAACGCCTTGTC (Cy3 label, position not given here) [VS_ASO_2-Cy3]",about 1.5 fold,about 6 fold,about 15 fold,–,–,–
"TGTTAATTGGAACGCCTTGTC (FANA modified, pattern not given here, FITC label) [VS_ASO_1-FANA-FITC]",–,–,–,about 6 fold,about 8 fold,about 350 fold
"VS_DsiRNA-Cy5: DsiRNA SEQ ID NOs: 23 & 24, target N-protein, Cy5 labeled (chain 1 AAACUAAAAUGUCUGAUAAUGGACC; chain 2 GGUCCAUUAUCAGACAUUUUAGUUUGU; chain 1: sugars from the 5' end r23 d2, backbone not given here; chain 2: chemistry not given here; Cy5 label)",about 5 fold,about 4 fold,about 90 fold,–,–,–
